# Experimental data reported in patent US12440567B2, “Aqueous antibody formulation stabilized by antioxidants for parenteral administration” (AMGEN INC., priority 2007, dated 2025).
# What was measured:
# Antibody A (IgG1) = assay: SEC-HPLC aggregation of Antibody A (IgG1) after UV-B exposure; format: physicochemical; settings: for UV-B protection of Antibody A (aggregation, SEC-HPLC): Antibody A 1 mg/mL, pH 4.50 (glycolic, lactic acid) or pH 5.00 (citric acid), UV 1 hr
# [1] = cited from earlier work
# EPO binding to D11 = assay: Binding of EPO to D11 monoclonal antibody after UV-B exposure of the formulation; set-up: species or system human; settings: for EPO binding activity to D11 during UV-B exposure: 0.1 mM antioxidant, UV-B up to 24 hours
# Method: For the examples below involving exposure to UVB radiation, each sample was exposed to UVB light (λ≈302 nm) for varying times, using a UVP 8W model UVLMS-38 lamp at 4° C. The formulations were then analyzed using size exclusion chromatography high pressure liquid chromatography (SEC-HPLC). Aggregation (measured via SEC-HPLC analysis) and binding (measured using CM5 gold sensor chips) were measured to determine the effect of the antioxidant on aggregation and bioactivity of the therapeutic protein. The binding activity of therapeutic protein to a ligand (e.g. to an antibody or binding partner, or, in cases where the therapeutic was an antibody, binding activity to the specific target antigen or to protein A) was determined as follows. […] The therapeutic protein-binding ligand of interest was injected until the desired immobilization level was achieved (above 5000 response units). Three different therapeutic protein-binding ligands were measured—Antibody A's target antigen, Protein A, and D11 (an antibody that binds to erythropoietin). […] The remaining activated groups were blocked with 1.0 M ethanolamine-HCl, pH 8.5. A standard curve was prepared by using native forms of the therapeutic protein of interest. Native forms of the therapeutic protein were diluted in HBS-EP buffer (pH 7.4) to concentrations between 1 and 5 μg/mL, and then injected on the column, prepared as described above to obtain a standard curve. At the end of each sample run, regeneration buffer was used to wash away any bound therapeutic protein in preparation for subsequent injections. Various UV-stressed antibody formulations were also diluted in HBS-EP buffer (pH 7.4) to a concentration within the standard curve region, and injected to quantitate the loss of bioactivity to its respective ligand-binding partner. […] The protein was exposed to the same conditions as Antibody A and Antibody B for up to 24 hours.
# [2] = 20 mM benzoic acid derivative, Antibody A 5 mg/mL, 20 mM sodium acetate pH 5.00, UV-B 4° C. 3 hours
# [3] = 100 mM, Antibody A 1 mg/mL pH 5.00, UV 3 hours
# [4] = 5 mM or 1 mM preservative, Antibody A 1 mg/mL pH 5.00, UV 3 hours
compound,measurement,setting,value
"Nc1cc[nH]c(=O)n1 [Cytosine, cytosine]",aggregation of Antibody A,"Antibody A (IgG1); 25 mM cytosine (FIG. 21), Antibody A 1 mg/mL pH 5.00, UV 1, 2, or 3 hours",able to prevent aggregation
"O=C(O)CO [Glycolic acid, glycolic acid]","UV-B protection of Antibody A (aggregation, SEC-HPLC)",Antibody A (IgG1); 100 mM,most effective
Oc1cc(O)c2c(c1)O[C@H](c1ccc(O)c(O)c1)[C@H](O)C2 [epicatechin],solubility,[1],limited solubility
catechin,percent binding of EPO to D11 after UV,"EPO binding to D11; 20 mM catechin, EPO 40 kU/mL, 25 mM sodium phosphate, 125 mM sodium chloride, 0.005% Tween-80, pH 6.90, UV 0-8 hours",able to preserve EPO binding
COc1cc(O)c(C(=O)c2ccccc2)cc1S(=O)(=O)O [sulisobenzone],EPO binding to D11 after UV,"EPO binding to D11; 5 mM sulisobenzone, EPO 40 kU/mL, pH 6.90, UV 0-8 hours at 4° C.",able to protect EPO binding to D11
O=C(O)/C=C/c1ccc(O)c(O)c1 [caffeic acid],EPO binding activity to D11 during UV-B exposure,EPO binding to D11,able to protect the EPO from degradation and preserve its binding activity
O=C(O)c1cc(O)c(O)c(O)c1 [gallic acid],aggregation of Antibody A (SEC-HPLC),Antibody A (IgG1); [2],able to significantly decrease the amount of aggregation
O=C(O)/C=C/C(=O)O [fumaric acid],aggregation of Antibody A (SEC-HPLC),Antibody A (IgG1); [3],able to protect Antibody A from aggregation
Cc1cccc(O)c1 [m-cresol],aggregation of Antibody A (SEC-HPLC),Antibody A (IgG1); [4],able to significantly decrease the amount of aggregation
O=C(O)c1ccc(O)c(O)c1 [protocatechuic acid],aggregation of Antibody A (SEC-HPLC),Antibody A (IgG1); [2],able to significantly decrease the amount of aggregation
O=C(O)c1ccc(O)cc1 [p-hydroxybenzoic acid],aggregation of Antibody A (SEC-HPLC),Antibody A (IgG1); [2],able to significantly decrease the amount of aggregation
CC(=O)N[C@@H](Cc1c[nH]c2ccccc12)C(=O)O (racemic) [N-acetyl-tryptophan],EPO activity (binding to D11) after UV-B,"EPO binding to D11; 20 mM racemic N-acetyl-tryptophan, 40 kU/mL EPO pH 6.90, UV 0 to 24 hours",preserved
same,solubility,[1],more soluble than free tryptophan
O=C(O)CC(O)(CC(=O)O)C(=O)O [citric acid],"UV-B protection of Antibody A (aggregation, SEC-HPLC)",Antibody A (IgG1); 100 mM,fairly weak
"CCCOC(=O)c1cc(O)c(O)c(O)c1 [Propyl gallate, propyl gallate]",aggregation of Antibody A (SEC-HPLC),"Antibody A (IgG1); 10 mM propyl gallate, pH 5.00, UV 3 hours",able to significantly reduce the amount of aggregation
COc1cc(C(=O)O)cc(OC)c1O [syringic acid],aggregation of Antibody A (SEC-HPLC),Antibody A (IgG1); [2],able to significantly decrease the amount of aggregation
Oc1ccccc1 [phenol],aggregation of Antibody A (SEC-HPLC),Antibody A (IgG1); [4],able to significantly decrease the amount of aggregation
COc1cc(/C=C/C(=O)O)cc(OC)c1O [sinapic acid],EPO binding activity to D11 during UV-B exposure,EPO binding to D11,able to protect the EPO from degradation and preserve its binding activity
O=C(O)C1=C[C@@H](O)[C@@H](O)[C@H](O)C1 [shikimic acid],aggregation of Antibody A (SEC-HPLC),Antibody A (IgG1); [3],able to protect Antibody A from aggregation
COc1cc(C(=O)O)ccc1O [vanillic acid],aggregation of Antibody A (SEC-HPLC),Antibody A (IgG1); [2],able to significantly decrease the amount of aggregation
